Reference: patent US20250195521A1 (Revolution Medicines, Inc., priority 2020, published 2025)

system: Capan-1 cells (K-Ras G12V); experiment: CellTiter-Glo cell viability, Capan-1; type: cell-based, human; settings: Homo sapiens, CAPAN-1, 120 h, K-Ras G12V, 5-day treatment; read-out: Capan-1 Cell Viability IC50
Protocol: Note—The following protocol describes a procedure for monitoring cell viability of K-Ras mutant cancer cell lines in response to a compound of the invention. Other RAS isoforms may be employed, though the number of cells to be seeded will vary based on cell line used.
Test compounds (132.5 nl) were directly dispensed into the assay plates containing cells. […] On day 5, assay plates and their contents were equilibrated to room temperature for approximately 30 minutes. […] Luminescence was measured using the PerkinElmer Enspire. Data were normalized by the following: (Sample signal/Avg. DMSO)*100. The data were fit using a four-parameter logistic fit.

Row | SMILES | IC50 [µM]
1 | CCn1c(-c2cccnc2[C@H](C)OC)c2c3cc(ccc31)-c1cc(O)cc(c1)C[C@H](NC(=O)[C@H](C(C)C)N(C)C(=O)[C@@H]1C[C@H]1C)C(=O)N1CCC[C@H](N1)C(=O)OCC(C)(C)C2 [Compound A147] | 0.1 to 1

system: K-Ras G12C (NCI-H358 cells); experiment: Potency assay: pERK in NCI-H358 cells; type: cell-based, human; settings: Homo sapiens, NCI-H358, 4 h, read-out: pERK EC50 (H358 KRAS G12C)
Protocol: The purpose of this assay is to measure the ability of test compounds to inhibit K-Ras in cells. […] This procedure measures a decrease in cellular pERK in response to test compounds. The procedure described below in NCI-H358 cells is applicable to K-Ras G12C.
Note: This protocol may be executed substituting other cell lines to characterize inhibitors of other RAS variants, including, for example, AsPC-1 (K-Ras G12D), Capan-1 (K-Ras G12V), or NCI-H1355 (K-Ras G13C).
NCI-H358 cells were grown and maintained using media and procedures recommended by the ATCC. On the day prior to compound addition, cells were plated in 384-well cell culture plates (40 μl/well) and grown overnight in a 37° C., 5% CO2 incubator. Test compounds were prepared in 10, 3-fold dilutions in DMSO, with a high concentration of 10 mM. On the day of assay, 40 nL of test compound was added to each well of cell culture plate using an Echo550 liquid handler (LabCyte®). Concentrations of test compound were tested in duplicate. After compound addition, cells were incubated 4 hours at 37° C., 5% CO2. Following incubation, culture medium was removed and cells were washed once with phosphate buffered saline.
In some experiments, cellular pERK level was determined using the AlphaLISA SureFire Ultra p-ERK1/2 Assay Kit (PerkinElmer). Cells were lysed in 25 μL lysis buffer, with shaking at 600 RPM at room temperature. […] After a 2-hour incubation in the dark, 5 μL donor mix was added, plate was sealed, and incubated 2 hours at room temperature. Signal was read on an Envision plate reader (PerkinElmer) using standard AlphaLISA settings. Analysis of raw data was carried out in Excel (Microsoft) and Prism (GraphPad). Signal was plotted vs. the decadal logarithm of compound concentration, and IC50 was determined by fitting a 4-parameter sigmoidal concentration response model.
In other experiments, cellular pERK was determined by In-Cell Western. […] Fixed cells were washed 4 times for 5 minutes with TBS containing 0.1% Triton X-100 (TBST) and then blocked with 100 μL Odyssey blocking buffer (LI-COR) for 60 minutes at room temperature. Primary antibody (PERK, CST-4370, Cell Signaling Technology) was diluted 1:200 in blocking buffer, and 50 μL was added to each well and incubated overnight at 4° C. Cells were washed 4 times for 5 minutes with TBST. Secondary antibody (IR-800CW rabbit, LI-COR, diluted 1:800) and DNA stain DRAQ5 (LI-COR, diluted 1:2000) were added and incubated 1-2 hours at room temperature. Cells were washed 4 times for 5 minutes with TBST. Plates were scanned on a Li—COR Odyssey CLx Imager. Analysis of raw data was carried out in Excel (Microsoft) and Prism (GraphPad). Signal was plotted vs. the decadal logarithm of compound concentration, and IC50 was determined by fitting a 4-parameter sigmoidal concentration response model.

Row | SMILES | EC50 [µM]
2 | CCn1c(-c2cccnc2[C@H](C)OC)c2c3cc(ccc31)-c1csc(n1)C[C@H](NC(=O)[C@H](C(C)C)N(C)C(=O)N1CC(S(=O)(=O)NC)C1)C(=O)N1CCC[C@H](N1)C(=O)OCC(C)(C)C2 [Compound A549] | < 5

same assay, conditions: Homo sapiens; NCI-H358 cells, 4 hours; read-out: pERK EC50 (H358 KRAS G12C)

Row | SMILES | EC50 [µM]
3 | CCn1c(-c2cccnc2[C@H](C)OC)c2c3cc(ccc31)-c1csc(n1)C[C@H](NC(=O)[C@H](C(C)C)N(C)C(=O)N1CCCC13CCOCC3)C(=O)N1CCC[C@H](N1)C(=O)OCC(C)(C)C2 [Compound A520] | < 5
4 | CCn1c(-c2cccnc2[C@H](C)OC)c2c3cc(ccc31)-c1csc(n1)C[C@H](NC(=O)[C@H](C(C)C)N(C)C(=O)N1CC3(CCCO3)C1)C(=O)N1CCC[C@H](N1)C(=O)OCC(C)(C)C2 [Compound A522] | < 5
5 | CCn1c(-c2cc(N3CCN(C)CC3)cnc2[C@H](C)OC)c2c3cc(ccc31)-c1csc(n1)C[C@H](NC(=O)[C@H](C1CCCC1)N(C)C(=O)N(C)C)C(=O)N1CCC[C@H](N1)C(=O)OCC(C)(C)C2 [Compound A526] | < 5
6 | CCn1c(-c2cccnc2[C@H](C)OC)c2c3cc(ccc31)-c1csc(n1)C[C@H](NC(=O)[C@H](C(C)C)N(C)C(=O)N1CCCC13COC3)C(=O)N1CCC[C@H](N1)C(=O)OCC(C)(C)C2 [Compound A528] | < 5
7 | CCn1c(-c2cccnc2[C@H](C)OC)c2c3cc(ccc31)-c1csc(n1)C[C@H](NC(=O)[C@H](C(C)C)N(C)C(=O)N1CC3(CC(N(C)CCOC)C3)C1)C(=O)N1CCC[C@H](N1)C(=O)OCC(C)(C)C2 [Compound A532] | < 5
8 | CCn1c(-c2cccnc2[C@H](C)OC)c2c3cc(ccc31)-c1csc(n1)C[C@H](NC(=O)[C@H](C(C)C)N(C)C(=O)N1CC([C@H](C)NC)C1)C(=O)N1CCC[C@H](N1)C(=O)OCC(C)(C)C2 [Compound A535] | < 5

The next lines start with the values.

Row | EC50 [µM] | SMILES
9 | < 5 | CCn1c(-c2cccnc2[C@H](C)OC)c2c3cc(ccc31)-c1cc(O)cc(c1)C[C@H](NC(=O)[C@H](C(C)C)N(C)C(=O)[C@@H]1OCC[C@@H]1c1cccnc1)C(=O)N1CCC[C@H](N1)C(=O)OCC(C)(C)C2 [Compound A546]
10 | < 5 | CCn1c(-c2cc(N3CCN(C)CC3)cnc2[C@H](C)OC)c2c3cc(ccc31)-c1csc(n1)C[C@H](NC(=O)[C@H](C(C)C)N(C)C(=O)N1CCOCC1)C(=O)N1CCC[C@H](N1)C(=O)OCC(C)(C)C2 [Compound A555]
11 | < 5 | CCn1c(-c2cccnc2[C@H](C)OC)c2c3cc(ccc31)-c1csc(n1)C[C@H](NC(=O)[C@H](C(C)C)N(C)C(=O)N1CCC3(CCN(C)CC3)C1)C(=O)N1CCC[C@H](N1)C(=O)OCC(C)(C)C2 [Compound A565]
12 | < 5 | CCn1c(-c2cccnc2[C@H](C)OC)c2c3cc(ccc31)-c1csc(n1)C[C@H](NC(=O)[C@H](C(C)C)N(C)C(=O)N1C[C@H](N)[C@@H](F)C1)C(=O)N1CCC[C@H](N1)C(=O)OCC(C)(C)C2 [Compound A567]
13 | < 5 | CCn1c(-c2cccnc2[C@H](C)OC)c2c3cc(ccc31)-c1csc(n1)C[C@H](NC(=O)[C@H](C(C)C)N(C)C(=O)N1CCOC[C@@H]1CN(C)C)C(=O)N1CCC[C@H](N1)C(=O)OCC(C)(C)C2 [Compound A572]
14 | < 5 | CCn1c(-c2cccnc2[C@H](C)OC)c2c3cc(ccc31)-c1csc(n1)C[C@H](NC(=O)[C@H](C(C)C)N(C)C(=O)N1CCC[C@H](CN(C)C)C1)C(=O)N1CCC[C@H](N1)C(=O)OCC(C)(C)C2 [Compound A573]
15 | < 5 | CCn1c(-c2cccnc2[C@H](C)OC)c2c3cc(ccc31)-c1csc(n1)C[C@H](NC(=O)[C@H](CC1CC1)N(C)C(=O)N1CC(OC)C1)C(=O)N1CCC[C@H](N1)C(=O)OCC(C)(C)C2 [Compound A578]
16 | < 5 | CCn1c(-c2cccnc2[C@H](C)OC)c2c3cc(ccc31)-c1csc(n1)C[C@H](NC(=O)[C@H](C(C)C)N(C)C(=O)N1CC(OC)C1)C(=O)N1CC[C@H](C)[C@H](N1)C(=O)OCC(C)(C)C2 [Compound A579, N-((2S)-1-(((6^3S,6^4S,4S,Z)-1^1-ethyl-1^2-(2-((S)-1-methoxyethyl)pyridin-3-yl)-6^4, 10, 10-trimethyl-5,7-dioxo-6^1,6^2,6^3,6^4,6^5,6^6-hexahydro-1^1H-8-oxa-2 (4,2)-thiazola-1 (5,3)-indola-6 (1,3)-pyridazinacycloundecaphane-4-yl)amino)-3-methyl-1-oxobutan-2-yl)-3-methoxy-N-methylazetidine-1-carboxamide]
17 | < 5 | CCn1c(-c2cccnc2[C@H](C)OC)c2c3cc(ccc31)-c1csc(n1)C[C@H](NC(=O)[C@H](C(C)C)N(C)C(=O)N1C[C@H](OC)[C@@H](N)C1)C(=O)N1CCC[C@H](N1)C(=O)OCC(C)(C)C2 [Compound A580]
18 | < 5 | CCn1c(-c2cccnc2[C@H](C)OC)c2c3cc(ccc31)-c1csc(n1)C[C@H](NC(=O)[C@H](C(C)C)N(C)C(=O)N1CCOC[C@@H]1c1ccccc1)C(=O)N1CCC[C@H](N1)C(=O)OCC(C)(C)C2 [Compound A604]
19 | < 5 | CCn1c(-c2cccnc2[C@H](C)OC)c2c3cc(ccc31)-c1csc(n1)C[C@H](NC(=O)[C@H](C(C)C)N(C)C(=O)N1[C@H](C)CN(C)C[C@H]1C)C(=O)N1CCC[C@H](N1)C(=O)OCC(C)(C)C2 [Compound A610]

target: KRAS G12D (Homo sapiens (Human), UniProt P01116+P62937, G12D); experiment: Ras-Raf disruption/FRET/MOA assay (BRAF RBD, Cyclophilin A); type: biochemical; settings: read-out: KRAS G12D FRET IC50
Protocol: (§1) Compound is present in plate wells as a 10-point 3-fold dilution series starting at a final concentration of 30 μM. After incubation at 25° C. for 3 hours, a mixture of Anti-His Eu—W1024 and anti-GST allophycocyanin is then added to assay sample wells at final concentrations of 10 nM and 50 nM, respectively, and the reaction incubated for an additional 1.5 hours. […] Compounds that facilitate disruption of a Ras: RAF complex are identified as those eliciting a decrease in the TR-FRET ratio relative to DMSO control wells.
(§2) Disruption of B-Raf Ras-Binding Domain (BRAF^RBD) Interaction with K-Ras by Compounds of the Invention (Also Called a FRET Assay or an MOA Assay)
(§3) Note—The following protocol describes a procedure for monitoring disruption of K-Ras G12C (GMP-PNP) binding to BRAF^RBD by a compound of the invention. This protocol may also be executed substituting other Ras proteins or nucleotides.
(§4) The purpose of this biochemical assay was to measure the ability of test compounds to facilitate ternary complex formation between a nucleotide-loaded K-Ras isoform and Cyclophilin A; the resulting ternary complex disrupts binding to a BRAF^RBD construct, inhibiting K-Ras signaling through a RAF effector. Data is reported as IC50 values.
(§5) In assay buffer containing 25 mM HEPES pH 7.3, 0.002% Tween20, 0.1% BSA, 100 mM NaCl and 5 mM MgCl2, tagless Cyclophilin A, His6-K-Ras-GMPPNP, and GST-BRAF^RBD were combined in a 384-well assay plate at final concentrations of 25 μM, 12.5 nM and 50 nM, respectively. Compound was present in plate wells as a 10-point 3-fold dilution series starting at a final concentration of 30 μM. After incubation at 25° C. for 3 hours, a mixture of Anti-His Eu—W1024 and anti-GST allophycocyanin was then added to assay sample wells at final concentrations of 10 nM and 50 nM, respectively, and the reaction incubated for an additional 1.5 hours. […] Compounds that facilitate disruption of a K-Ras: RAF complex were identified as those eliciting a decrease in the TR-FRET ratio relative to DMSO control wells.

KRAS G12D, sequence (P01116 other isoform, or with tags, fused parts or gaps G12D): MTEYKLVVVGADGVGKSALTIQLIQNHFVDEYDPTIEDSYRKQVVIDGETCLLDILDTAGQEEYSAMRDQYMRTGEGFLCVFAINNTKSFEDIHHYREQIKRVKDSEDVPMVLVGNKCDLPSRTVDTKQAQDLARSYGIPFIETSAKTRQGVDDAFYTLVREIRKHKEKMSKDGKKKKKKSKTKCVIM
KRAS G12D, sequence (P62937 whole entry): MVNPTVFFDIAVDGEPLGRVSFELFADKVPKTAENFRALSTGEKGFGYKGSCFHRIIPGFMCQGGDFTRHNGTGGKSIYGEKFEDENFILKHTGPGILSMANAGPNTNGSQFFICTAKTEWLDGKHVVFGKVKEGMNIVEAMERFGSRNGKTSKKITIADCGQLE

Row | SMILES | IC50 [µM]
20 | CCn1c(-c2cccnc2[C@H](C)OC)c2c3cc(ccc31)-c1cc(O)cc(c1)C[C@H](NS(=O)(=O)CC1CCC3(CNC3)C1)C(=O)N1CCC[C@H](N1)C(=O)OCC(C)(C)C2 (stereo partly shown) [Compound A188] | > 10

target: KRAS G12V (Homo sapiens (Human), UniProt P01116+P62937, G12V); experiment: as above; type: biochemical; settings: read-out: KRAS G12V FRET IC50
Protocol: as §1, §2, §3, §4, §5

KRAS G12V, sequence (P01116 other isoform, or with tags, fused parts or gaps G12V): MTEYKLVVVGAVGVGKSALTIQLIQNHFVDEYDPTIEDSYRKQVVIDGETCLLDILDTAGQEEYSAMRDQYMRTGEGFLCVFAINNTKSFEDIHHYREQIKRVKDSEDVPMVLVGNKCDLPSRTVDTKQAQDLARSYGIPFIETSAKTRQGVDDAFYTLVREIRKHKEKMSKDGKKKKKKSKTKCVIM
KRAS G12V, sequence (P62937 whole entry): as the sequence (P62937 whole entry) above

Row | SMILES | IC50 [µM]
21 | CCn1c(-c2cccnc2[C@H](C)OC)c2c3cc(ccc31)-c1cc(O)cc(c1)C[C@H](NS(=O)(=O)CC1CCC3(CNC3)C1)C(=O)N1CCC[C@H](N1)C(=O)OCC(C)(C)C2 (stereo partly shown) [Compound A188] | > 10

target: KRAS G13C (Homo sapiens (Human), UniProt P01116+P62937, G13C); experiment: as above; type: biochemical; settings: read-out: KRAS G13C FRET IC50
Protocol: as §1, §2, §3, §4, §5

KRAS G13C, sequence (P01116 other isoform, or with tags, fused parts or gaps G13C): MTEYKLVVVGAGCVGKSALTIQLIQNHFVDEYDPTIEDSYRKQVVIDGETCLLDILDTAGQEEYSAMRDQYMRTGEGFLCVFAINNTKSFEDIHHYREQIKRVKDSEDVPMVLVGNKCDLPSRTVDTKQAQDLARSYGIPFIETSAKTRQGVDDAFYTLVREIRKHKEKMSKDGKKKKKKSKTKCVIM
KRAS G13C, sequence (P62937 whole entry): as the sequence (P62937 whole entry) above

Row | SMILES | IC50 [µM]
22 | CCn1c(-c2cccnc2[C@H](C)OC)c2c3cc(ccc31)-c1cc(O)cc(c1)C[C@H](NS(=O)(=O)CC1CCC3(CNC3)C1)C(=O)N1CCC[C@H](N1)C(=O)OCC(C)(C)C2 (stereo partly shown) [Compound A188] | 1 to 10
